The test addresses T1, human PAD4 (Homo sapiens, UniProt Q9UM07).
T1 construct: human PAD4 (NM_012387), A2-P663, was PCR amplified; His-SUMO (N, cleaved yes); made in house; host or cells: E. coli BL21(DE3)
As to the kind of experiment: In vitro PAD4 BAEE biochemical assay. Particulars: BAEE substrate 3 mM, 5 nM PAD4, 2 mM calcium chloride; geometric mean of multiple experiments. An outline of the steps: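 Fluorescence read-out (ex 405/em 535 nm) of isoindole formed from ammonia, o-phthalaldehyde and DTT after EDTA stop. Reaction: 5 nM PAD4, 2 mM CaCl2, 3 mM BAEE, 2 h, 25 °C, after 30 min enzyme–compound preincubation. Normalised to BB-Cl-Amidine (50 µM) and DMSO controls.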

T1 sequence (Q9UM07 2-663): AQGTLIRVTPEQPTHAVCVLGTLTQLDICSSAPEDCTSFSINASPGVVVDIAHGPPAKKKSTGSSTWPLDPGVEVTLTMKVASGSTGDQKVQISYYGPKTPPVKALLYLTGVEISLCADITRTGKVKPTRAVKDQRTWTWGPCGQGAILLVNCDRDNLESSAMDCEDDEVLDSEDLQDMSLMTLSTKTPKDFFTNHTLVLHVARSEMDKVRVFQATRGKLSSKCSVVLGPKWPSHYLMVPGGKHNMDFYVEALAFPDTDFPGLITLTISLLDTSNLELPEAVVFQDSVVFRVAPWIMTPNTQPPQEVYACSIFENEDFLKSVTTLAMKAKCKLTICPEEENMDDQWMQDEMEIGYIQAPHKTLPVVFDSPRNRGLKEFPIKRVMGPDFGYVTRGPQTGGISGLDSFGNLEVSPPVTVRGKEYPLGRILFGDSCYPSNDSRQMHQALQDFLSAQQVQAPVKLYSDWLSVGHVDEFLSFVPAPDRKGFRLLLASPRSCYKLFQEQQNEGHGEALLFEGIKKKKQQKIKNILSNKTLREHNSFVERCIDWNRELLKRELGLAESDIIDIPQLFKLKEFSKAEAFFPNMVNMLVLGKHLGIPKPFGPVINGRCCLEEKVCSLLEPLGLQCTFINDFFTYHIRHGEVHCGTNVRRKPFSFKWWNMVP

`C[C@@H]1c2ccc3cc(-c4nc5cc(C(=O)N[C@H]6CNCC[C@@H]6F)c(F)cc5n4C4CC4)n(c3n2)CCCCCc2nc(Cl)ccc2C(=O)N1C` [Example 750, 2-[(2~{R})-8-chloro-2,3-dimethyl-4-oxo-3,9,16,22-tetrazatetracyclo[14.5.2.0^ {5,10}.0^{19,23}]tricosa-1(22),5(10),6,8,17,19(23),20-heptaen-17-yl]-1-cyclopropyl-6-fluoro-~{N}-[(3~{S},4~ {S})-4-fluoro-3-piperidyl] benzimidazole-5-carboxamide]: the half-maximal inhibitory concentration (IC50) came out at 28 nM. For `COc1cc(C(=O)N[C@H]2CNCC[C@@H]2F)cc2nc(-c3cc4ccc5nc4n3CCCCC[C@@H]3C[C@@H]3C(=O)N[C@@H]5C)n(C)c12` [Example 523, ~{N}-[(3~{S},4~ {S})-4-fluoro-3-piperidyl]-7-methoxy-1-methyl-2-[(2~{R},5~ {S},7~{R})-2-methyl-4-oxo-3,13,19-triazatetracyclo [11.5.2.0^{5,7}.0^{16,20}]icosa-1(19),14,16(20), 17-tetraen-14-yl] benzimidazole-5-carboxamide], the half-inhibitory concentration (IC50) is 205 nM.

For `C[C@H]1NC(=O)c2ccc(Cl)nc2CCCCCn2c(-c3nc4cc(C(=O)N5C[C@H](N)[C@@H]6CC[C@H]5C6)cc(F)c4n3CC3CC3)cc3ccc1nc32` [Example 921, (2~{R})-17-[5-[(1~{S},4~{R},5~ {R})-4-amino-2-azabicyclo [3.2.1]octane-2-carbonyl]-1-(cyclopropylmethyl)-7-fluoro-benzimidazol-2-yl]-8-chloro-2-methyl-3,9,16,22-tetrazatetracyclo[14.5.2.0^ {5,10}.0^{19,23}]tricosa-1(22),5(10),6,8,17,19(23),20-heptaen-4-one], the IC50 came out at 30 nM. For the compound `COc1cc(C(=O)N[C@@H]2CC[C@H](C)NC2)cc2nc(-c3cc4ccc5nc4n3CCCCCCC(C)(C)C(=O)N[C@@H]5C)n(C)c12` [Example 73, 7-methoxy-1-methyl-~{N}-[(3~{R},6~{S})-6-methyl-3-piperidyl]-2-[(11~{R})-8,8,11-trimethyl-9-oxo-1,10,19-triazatricyclo[10.5.2.0^{15,18}]nonadeca-12(19),13,15(18),16-tetraen-17-yl]benzimidazole-5-carboxamide], the IC50 is 125 nM. On to `COc1cc(C(=O)N2[C@H]3CC[C@@H]2[C@H](N)C3)cc2nc(-c3cc4ccc5nc4n3C[C@H]3C[C@H]3CCCC(C)(C)C(=O)N[C@@H]5C)n(C)c12` [Example 145, (3~{S},5~{R},12~{R})-18-[5-[(1~{R},2~{R},4~{S})-2-amino-7-azabicyclo[2.2.1]heptane-7-carbonyl]-7-methoxy-1-methyl-benzimidazol-2-yl]-9,9,12-trimethyl-1,11,20-triazatetracyclo[11.5.2.0^{3,5}.0^{16,19}] icosa-13(20),14,16(19),17-tetraen-10-one], for which the half-maximal inhibitory concentration (IC50) is 58 nM. Then `C[C@H]1NC(=O)[C@@H]2C[C@H]2CCCCCn2c(-c3nc4cc(C(=O)N5[C@H]6CC[C@@H]5[C@H](N)C6)c(F)cc4n3C3CC3)cc3ccc1nc32` [Example 557, (2~{R},5~{R},7~{R})-14-[5-[(1~{R},2~{R},4~ {S})-2-amino-7-azabicyclo [2.2.1]heptane-7-carbonyl]-1-cyclopropyl-6-fluoro-benzimidazol-2-yl]-2-methyl-3,13,19-triazatetracyclo[11.5.2.0^ {5,7}.0^{16,20}] icosa-1(19),14,16(20), 17-tetraen-4-one], with 31 nM; and `COc1cc(C(=O)N2CC[C@@H](OC)[C@@H](N)C2)cc2nc(-c3cc4ccc5nc4n3C[C@H]3C[C@H]3COCCC(=O)N[C@@H]5C)n(C)c12` [Example 314, (3~{S),5~{R},12~{R})-18-[5-[(3~{S},4~{R})-3-amino-4-methoxy-piperidine-1-carbonyl]-7-methoxy-1-methyl-benzimidazol-2-yl]-12-methyl-7-oxa-1,11,20-triazatetracyclo[11.5.2.0^{3,5}.0^{16,19}] icosa-13(20),14,16(19),17-tetraen-10-one], with 156 nM; and `CO[C@@H]1CCN(C(=O)c2cc(F)c3c(c2)nc(-c2cc4ccc5nc4n2CCCCCc2ccnc(C)c2C(=O)N[C@@H]5C)n3C2CC2)C[C@@H]1N` [Example 698, (2~{R})-17-[5-[(3~{S),4~ {R})-3-amino-4-methoxy-piperidine-1-carbonyl]-1-cyclopropyl-7-fluoro-benzimidazol-2-yl]-2,6-dimethyl-3,7,16,22-tetrazatetracyclo[14.5.2.0^ {5,10).0^{19,23}]tricosa-1(22),5(10),6,8,17,19(23),20-heptaen-4-one], with 68 nM.

Consider `CO[C@@H]1CCN(C(=O)c2cc(F)c3c(c2)nc(-c2cc4ccc5nc4n2CCCCCc2nc(Cl)ccc2C(=O)N[C@@H]5C)n3C)C[C@@H]1N` [Example 740, (2~{R})-17-[5-[(3~{S},4~ {R})-3-amino-4-methoxy-piperidine-1-carbonyl]-7-fluoro-1-methyl-benzimidazol-2-yl]-8-chloro-2-methyl-3,9,16,22-tetrazatetracyclo [14.5.2.0^{5,10}.0^{19,23}] tricosa-1(22),5(10),6,8,17,19(23),20-heptaen-4-one], for which the IC50 was 30 nM. The result for `COc1cc(C(=O)N2CCC[C@@H](N)C2)cc2nc(-c3cc4ccc5nc4n3CCCCOc3ccccc3C(=O)N[C@@H]5C)n(C)c12` [Example 30, (2~{R})-17-[5-[(3~{R})-3-aminopiperidine-1-carbonyl]-7-methoxy-1-methyl-benzimidazol-2-yl]-2-methyl-11-oxa-3,16,22-triazatetracyclo[14.5.2.0^{5,10).0^{19,23}] tricosa-1(22),5,7,9,17,19(23),20-heptaen-4-one] reads 1780 nM.

`COc1cc(C(=O)N2CCC[C@@H](N)C2)cc2nc(-c3cc4ccc5nc4n3CCCCCCCC(=O)N[C@H]5C(F)(F)F)n(C)c12` (single isomer, unassigned) [Example 236, (11˜{R})-17-[5-[(3˜{R})-3-aminopiperidine-1-carbonyl]-7-methoxy-1-methyl-benzimidazol-2-yl]-11-(trifluoromethyl)-1,10,19-triazatricyclo[10.5.2.0^{15,18}]nonadeca-12(19),13,15(18),16-tetraen-9-one]: the IC50 was determined as 858 nM. Regarding `COc1cc(C(=O)N2[C@H]3CC[C@@H]2[C@H](N)[C@H](O)C3)cc2nc(-c3cc4ccc5nc4n3CCCCCCC3(CC3)C(=O)N[C@@H]5C)n(C)c12` [Example 207, (11~{R})-17-[5-[(1~{R},2~{S},3~{R},5~{S})-2-amino-3-hydroxy-8-azabicyclo[3.2.1]octane-8-carbonyl]-7-methoxy-1-methyl-benzimidazol-2-yl]-11-methyl-spiro[1,10,19-triazatricyclo[10.5.2.0^{15,18}]nonadeca-12(19),13,15(18),16-tetraene-8,1′-cyclopropane]-9-one], the IC50 was determined as 187 nM. Then `COc1cc(C(=O)N2[C@H]3CC[C@@H]2[C@H](N)C3)cc2nc(-c3cc4ccc5nc4n3CCCCCCC3(CC3)C(=O)N[C@@H]5C)n(C)c12` [Example 279, (11~{R})-17-[5-[(1~{R},2~{R},4~{S})-2-amino-7-azabicyclo[2.2.1]heptane-7-carbonyl]-7-methoxy-1-methyl-benzimidazol-2-yl]-11-methyl-spiro[1,10,19-triazatricyclo[10.5.2.0^{15,18}]nonadeca-12(19),13,15(18),16-tetraene-8,1′-cyclopropane]-9-one], with 82 nM; and `C[C@H]1NC(=O)[C@@H]2C[C@H]2CCCCCn2c(-c3nc4cc(C(=O)N[C@H]5CNCC[C@@H]5F)c(F)cc4n3C3CC34CC4)cc3ccc1nc32` (some centres unmarked) [Example 571, 6-fluoro-~{N}-[(3~ {S},4~{S})-4-fluoro-3-piperidyl]-2-[(2~{R}, 5~{R},7~{R})-2-methyl-4-oxo-3,13,19-triazatetracyclo[11.5.2.0^ {5,7}.0^{16,20}]icosa-1(19),14,16(20),17-tetraen-14-yl]-1-spiro [2.2]pentan-2-yl-benzimidazole-5-carboxamide], with 31 nM; and `COc1cc(C(=O)N2[C@H]3CC[C@@H]2[C@H](N)C3)cc2nc(-c3cc4ccc5nc4n3CCCCCCn3ccc(n3)C(=O)N[C@@H]5C)c(C)n12` [Example 36, (2~{R})-16-[7-[(1~{R},2~{R},4~{S})-2-amino-7-azabicyclo[2.2.1]heptane-7-carbonyl]-5-methoxy-3-methyl-imidazo[1,2-a]pyridin-2-yl]-2-methyl-3,8,15,21,23-pentazatetracyclo[13.5.2.1^{5,8}.0^{18,22}] tricosa-1(21),5(23),6,16,18(22),19-hexaen-4-one], with 372 nM. In the case of `CO[C@H]1C[C@@H]1n1c(-c2cc3ccc4nc3n2CC(F)(F)CCC[C@@H]2C[C@H]2C(=O)N[C@@H]4C)nc2cc(C(=O)N3CCC[C@@H](N)[C@H]3C)cc(F)c21` [Example 802, (2~{R},5~{R},7~{R})-14-[5-[(2~{R},3~{R})-3-amino-2-methyl-piperidine-1-carbonyl]-7-fluoro-1-[(1~{S},2~{S})-2-methoxycyclopropyl]benzimidazol-2-yl]-11,11-difluoro-2-methyl-3,13,19-triazatetracyclo [11.5.2.0^{5,7}.0^{16,20}] icosa-1(18),14,16,19-tetraen-4-one], the IC50 stood at 22 nM. Consider `COc1cc(C(=O)N2[C@H]3CC[C@@H]2[C@H](N)C3)cc2nc(-c3cc4ccc5nc4n3C[C@@H]3C[C@H]3COCCC(=O)N[C@@H]5C)c(C)n12` [Example 322, (3~{R},5~{R},12~{R})-18-[7-[(1~{R},2~{R},4~{S})-2-amino-7-azabicyclo[2.2.1]heptane-7-carbonyl]-5-methoxy-3-methyl-imidazo[1,2-a]pyridin-2-yl]-12-methyl-7-oxa-1,11,20-triazatetracyclo[11.5.2.0^{3,5}.0^{16,19}] icosa-13(20),14,16(19),17-tetraen-10-one], for which the IC50 is 15 nM.

Values taken from US11976083B2, “Inhibitors of peptidylarginine deiminases” (Gilead Sciences, Inc., priority 2020, dated 2024).
